US7576101B2, “Composition for and treatment of demyelinating diseases and paralysis by administration of remyelinating agents” (Elan Pharmaceuticals, Inc., priority 2003, dated 2009)
“Also recorded” adds a separate entry of the source. Like-named read-outs stand apart in the source and are kept apart here.

Columns and labels:
[1] = test system: IL-2, IL-10, MCP-1; test: Chronic EAE in guinea pigs: quantitative reverse transcription-PCR of spinal cord; type: in vivo, guinea pig; settings: for cytokine RNA (IL-2, IL-10, MCP-1) in spinal cord after withdrawal: 10 days after removal
Experimental: Quantitative Reverse Transcription-PCR: IL-2, IL-10, MCP-1. RNA was isolated from 30 mg of frozen guinea pig spinal cord using the S.N.A.P.™ (simple nucleic acid preparation) total RNA Isolation Kit (Invitrogen) according to manufacturer's instructions, modified to include a second DNAse treatment step followed by an additional purification over the S.N.A.P. column.
Primer/probe sequences and concentrations for IL-2, IL-10, and MCP-1 are given in Table 7, as well as the standard RNA used for each gene. RT-PCR was carried out in triplicate using the ABI PRISM® 7700 Sequence Detection System. 50 μl reactions contained 10 to 800 ng of total RNA and primers and probes at the concentrations indicated above in reaction buffer consisting of 6.67% glycerol (Amresco); 5.5 mM MgCl; 300 μM dATP, dCTP, dGTP, and dUTP; 100 nM probe; 1.25 unit of AmpliTaq Gold® DNA Polymerase (Applied Biosystems); 1× TaqMan® Buffer A (TaqMan® PCR Core reagents kit, Applied Biosystems), 20 units of RNase Inhibitor (Roche); 1.25 unit of murine leukemia virus (MULV) Reverse Transcriptase (Applied Biosystems). Reverse-transcription of RNA was carried out at 48° C. for 30 min., followed by a 10 min. denaturing step at 95° C. PCR was carried out by 40 thermo-cycles consisting of 95° C. for 15 seconds followed by 60° C. for 1 minute. Each plate included a standard curve using the standard RNA listed in Table 7 and two additional control samples: 1) a positive control RNA sample used on all plates, 2) a non-template control (NTC).
The correlation coefficients of the standard curves were greater than 0.990 for all data shown. The coefficients of variation for sample triplicates were less than 0.2. Since the RNA used for the standard curve is a heterogeneous mix of RNA containing a constant but unknown amount of the target message, the numbers calculated are relative.

[2] = test system: guinea pig model of CP-EAE; test: Remyelination and functional recovery in guinea pig model of CP-EAE; type: in vivo
Description: The number of lesions showing myelin pallor was divided by the total number of lesions within cross sections of spinal cord taken throughout its length from each animal (FIG. 10) (for the method see Warrington et al., 2000, Proc. Nat'l Acad. Sci. USA 97: 6820-5). […] In contrast, after 20 days of N-[N-(3-pyridinesulfonyl)-L-3,3-dimethyl-4-thiaprolyl]-O-[1-methylpiperazin-4-ylcarbonyl]-L-tyrosine isopropyl ester administration, the frequency of shadow plaques in the spinal cord was increased over saline-treated animals, reaching 68%; after 30 and 40 days, the incidence was 77% and 87%, respectively (p<0.001, 2-way ANOVA with Tukey test).
The overall degree of plaque remyelination in the spinal cord was also measured. […] Total lesion area was determined for each animal by tracing all lesions within all spinal cord sections and summing the areas. Likewise, the total area of remyelination was measured by tracing regions of myelin pallor. FIGS. 10C-F plot the total lesion area against the percentage of remyelination. In saline-treated animals, lesions rarely show any evidence of repair, with means ranging between 2 and 11%, and there were no significant differences over the 40-day treatment period (FIGS. 10C-F). In contrast, after 20, 30 or 40 days of N-[N-(3-pyridinesulfonyl)-L-3,3-dimethyl-4-thiaprolyl]-O-[1-methylpiperazin-4-ylcarbonyl]-L-tyrosine isopropyl ester treatment, the majority of lesions identified show a variable degree of remyelination ranged from 2 to 100% in the majority of lesions (mean area of remyelination approximately 50%) (FIGS. 10D-5). (p<0.001, 2-way ANOVA with Tukey test). Therefore while lesions were evident in all animals throughout the 40-day treatment period, N-[N-(3-pyridinesulfonyl)-L-3,3-dimethyl-4-thiaprolyl]-O-[1-methylpiperazin-4-ylcarbonyl]-L-tyrosine isopropyl ester increased the incidence and percentage of remyelination. Furthermore, evidence of remyelination in N-[N-(3-pyridinesulfonyl)-L-3,3-dimethyl-4-thiaprolyl]-O-[1-methylpiperazin-4-ylcarbonyl]-L-tyrosine isopropyl ester-treated animals is consistent with an observed regain of motor function. The starting point for treatment was a clinical score of 2, which denotes full bilateral hind limb paralysis. […] Functional recovery was never observed in control animals.

[3] = test system: experimental allergic encephalomyelitis in female Hartley guinea pigs; settings: for mean clinical score day 70-80 after withdrawal (30 days treatment, 10 days off) vs continued treatment: p<0.05 Mann Whitney rank sum test; for escape from treatment: up to 40 days of treatment, compared with antibodies to α4 integrin
[4] = listed as N-[N-(3-pyridinesulfonyl)-L-3,3-dimethyl-4-thiaprolyl]-O-[1-methylpiperzain-4-yl

## CC(C)OC(=O)[C@H](Cc1ccc(OC(=O)N2CCN(C)CC2)cc1)NC(=O)[C@H]1N(S(=O)(=O)c2cccnc2)CSC1(C)C [N-[N-(3-pyridinesulfonyl)-L-3,3-dimethyl-4-thiaprolyl]-O-[1-methylpiperazin-4-ylcarbonyl]-L-tyrosine isopropyl ester]
[1]
  cytokine RNA (IL-2, IL-10, MCP-1) in spinal cord after withdrawal: returned to levels comparable to saline-treated animals
[1]; [4]
  cytokine RNA (IL-2, IL-10, MCP-1) in spinal cord after withdrawal: rose to levels comparable to those in saline-treated animals
[1]; during treatment, vs saline
  IL-2 RNA in lumbar spinal cord: almost no detectable
  expression of inflammatory cytokine RNA (IL-2, IL-10, MCP-1) in spinal cord: significant reduction; also recorded: marked decrease
[2]; after 20 days of administration
  percentage of plaques exhibiting remyelination (frequency of shadow plaques in the spinal cord): 68%
[2]; after 30 days of administration
  percentage of plaques exhibiting remyelination (incidence): 77%
[2]; after 40 days of administration
  percentage of plaques exhibiting remyelination (incidence): 87%
[2]; starting clinical score of 2 (full bilateral hind limb paralysis)
  treated animals in which paralysis was reversed to a clinical score of 1: 50%
[3]; 30 mg/kg 2×/day s.c. from day 40 post immunization for 10-40 days, p<0.001 Mann Whitney rank sum test
  mean clinical score vs saline-treated animals over the treatment period: significantly lower
[3]; 30 mg/kg twice a day s.c. from day 40 post immunization
  start of clinical reversal following the initial treatment: 2 to 3 days
[3]; guinea pig, 30 mg/kg 2×/day s.c. for up to 40 days, listed as N-[N-(3-pyridinesulfonyl)-L-3,3-dimethyl-4-thiaprolyl]-O-[1-methylpiperzain-4-yl, 30 mg/kg
  adverse side effects during prolonged administration: no adverse side effects
[3]
  mean clinical score day 70-80 after withdrawal (30 days treatment, 10 days off) vs continued treatment: significantly greater
  escape from treatment: None of the animals, however, escaped from treatment
[3]; [4]
  mean clinical score day 70-80 after withdrawal (30 days treatment, 10 days off) vs continued treatment: significantly higher
  escape from treatment: no escape from treatment
[3]; reversion to a clinical score of 1 during treatment
  hind limb paresis in animals with an established clinical score of 2: reversed the paresis
